Reference: ChEMBL document CHEMBL1154048, “Design, synthesis and pharmacological evaluation of new 1-[3-(4-arylpiperazin-1-yl)-2-hydroxy-propyl]-3,3-diphenylpyrrolidin-2-one derivatives with antiarrhythmic, antihypertensive, and alpha-adrenolytic activity” (Eur J Med Chem, 2009)

Tested on: Rattus norvegicus
Assay: Hypotensive activity in normotensive Wistar rat assessed as diastolic blood pressure at 5 mg/kg, iv after 5 mins (Rvb=125.5 +/- 0.6 mmHg)
Format: functional, Artery

Q: For `Cl.Cl.O=C1N(CC(O)CN2CCN(c3ccccc3)CC2)CCC1(c1ccccc1)c1ccccc1` (stereo unspecified), which Activity is on record?
A: 119 mmHg
